Several values for one entry are separate records, joined by “and”; a condition that tells them apart may be missing. Identical values can stand only once.
Columns and labels:
[1] = test system: human pancreatic cancer Capan-1 subcutaneous xenograft model; assay: In-depth efficacy in olaparib-resistant pancreatic cancer Capan-1 CDX model (3.2); type: in vivo, mouse; conditions: Group 2: 100 mg/kg p.o. QD×30
Procedure: Protocol: Nude BALB/c mice were subcutaneously inoculated with human pancreatic cancer Capan-1 cells, establishing a human pancreatic cancer subcutaneous xenograft model. The mice were divided into 7 groups, 6 in each group: 100 mg/kg of the test drug olaparib as a monotherapy (Group 2); 50 mg/kg of TH-302 as a monotherapy (Group 3, QD); 100 mg/kg of TH-302 as a monotherapy (Group 4); 50 mg/kg of TH-302 as a monotherapy (Group 5, QW); 25 mg/kg of TH-302 as a monotherapy (Group 6); 25 mg/kg TH-302 in combination therapy with 100 mg/kg olaparib (Group 7); and 10% anhydrous ethanol+10% polyoxyethylene (35) castor oil+80% glucose injection solution D5W (pH 7.4) as a vehicle control (Group 1). The vehicle control group and the TH-302 test groups were all administered through tail vein injection. The 50 mg/kg TH-302 monotherapy group (Group 3, QD) was administered once daily for 3 consecutive days. After rest for 4 days and two weeks, the mice were again administered daily for another 3 consecutive days. TH-302 in all the 100 mg/kg (Group 4, QW), 50 mg/kg (Group 5, QW) and 25 mg/kg (Group 6, QW) TH-302 monotherapy groups and 25 mg/kg TH-302+100 mg/kg olaparib combination therapy group (Group 7) was administered once weekly for a total of three weeks. The test drug olaparib in all the groups was orally and intragastrically administered once daily for totally 30 days. Routes of administration, doses and regimens for the human pancreatic cancer Capan-1 animal model are specifically summarized in Table 12.
Tumor growth of the treatment and control groups on different days in the experiment were recorded and shown in Table 13, and corresponding tumor volume growth curves of the mice in respective groups are shown in FIG. 7. Efficacy evaluation was conducted based on relative tumor proliferation rates and relative tumor growth inhibition rates, and the results of efficacy analysis are summarized in Table 14. Body weight changes of the treatment and control groups after administration were recorded to investigate safety of the groups in the human pancreatic cancer Capan-1 subcutaneous model. Body weight change rates of the mice on Day 43 are shown in Table 15, and curves showing body weights of the treatment groups over time are plotted in FIG. 8.
A relative tumor proliferation rate, denoted as T/C %, is calculated as a relative tumor volume or a tumor weight of a treatment group as a percentage of that of the control group at a certain point of time according to:
T/C %=TRTV/CRTV×100% (where TRTV denotes average RTV of the treatment group; CRTV represents average RTV of the vehicle control group; and RTV=Vt/V0, where V0 is a tumor volume of an animal at the time of randomization, and Vt is a tumor volume of the animal after treatment); or
T/C %=TTW/CTW×100% (where TTW is an average tumor weight of the treatment group at the end of the experiment, and CTW is an average tumor weight of the vehicle control group at the end of the experiment).
A relative tumor growth inhibition rate, denoted as TGI (%), is calculated according to: TGI %=(1−T/C)×100% (where T and C are relative tumor volumes (RTV) or tumor weights (TW) of a treatment group and the control group, respectively, at a particular point of time).

[2] = Safety (body weight) in BL3325 PDX model; type: in vivo, mouse; conditions: Group 2: 50 mg/kg p.o. QD×30
Procedure: Protocol: Nude female Balb/c mice were subcutaneously inoculated with HuPrime® bladder cancer BL3325 tumor tissue, establishing a human bladder cancer subcutaneous xenograft tumor model. The mice were divided into 6 groups, 6 in each group: 50 mg/kg of the test drug olaparib as a monotherapy (Group 02); 80 mg/kg TH-302 as a monotherapy (Group 03); 40 mg/kg TH-302 as a monotherapy (Group 04); 20 mg/kg TH-302 as a monotherapy (Group 05); 40 mg/kg TH-302 in combination therapy with 50 mg/kg olaparib (Group 06); and a glucose injection solution as a vehicle control (Group 01). The vehicle control group and the TH-302 treatment groups were all administered through tail vein, once weekly for a total of 3 weeks. Olaparib was intragastrically administered once daily for totally 30 days. Routes of administration, doses and regimens for the HuPrime® bladder cancer BL3325 animal model are specifically summarized in Table 20.
Tumor growth of the treatment and control groups on different days in the experiment were recorded and shown in Table 21, and corresponding tumor volume growth curves of the mice in respective groups are shown in FIG. 11. Efficacy evaluation was carried out based on relative tumor proliferation rates and relative tumor growth inhibition rates, and the results of efficacy analysis are summarized in Table 22. Body weight changes of the treatment and control groups after administration were recorded to investigate safety of the groups in the HuPrime® bladder cancer BL3325 subcutaneous model. Body weight change rates of the mice on Day 35 are shown in Table 23, and curves showing body weights of the treatment groups over time are plotted in FIG. 12.

SMILES: O=C(c1cc(Cc2n[nH]c(=O)c3ccccc23)ccc1F)N1CCN(C(=O)C2CC2)CC1 [olaparib]
- Tumor volume ([1]; Day 6): 146.72 mm^3
- Tumor volume ([1]; Day 9): 223.17 mm^3
- Tumor volume ([1]; Day 13): 263.96 mm^3
- Tumor volume ([1]; Day 16): 314.03 mm^3
- Tumor volume ([1]; Day 20): 373.87 mm^3
- Tumor volume ([1]; Day 23): 419.26 mm^3
- Tumor volume ([1]; Day 27): 518.48 mm^3
- Tumor volume ([1]; Day 30): 550.33 mm^3
- Tumor volume ([1]; Day 34): 604.32 mm^3
- Tumor volume ([1]; Day 37): 725.18 mm^3
- Tumor volume ([1]; Day 41): 767.49 mm^3
- Relative Tumor Volume (x ± S) ([1]; Day 43): 5.72 ± 0.54
- T/C (%) ([1]; Day 43): 62.57%
- TGI (%) ([1]; Day 43): 37.43%
- Tumor volume ([1]; Day 43, 100 mg/kg): 846.86 mm^3 and 846.86 ± 128.85 mm^3
- CR Rate ([1]; Day 43, complete response, animals/group): 0/6
- Average Body Weight g (x ± S) ([2]; Day 0): 21.8 ± 0.5 g
- Average Body Weight g (x ± S) ([2]; Day 35): 20.9 ± 0.7 g
- Body Weight Change Rate (%) ([2]; Day 35): −4.24% ± 2.93%
